Test results taken from patent US20120029187A1, “HALOALKYLSULFONANILIDE DERIVATIVE” (Nissan Chemical Industries, Ltd., priority 2009, published 2012).

Assays:
Assay type in all cases: in vivo
velvetleaf [1] = assay: Test Example 4: herbicidal effect in foliage treatment; details: three weeks after application
Method in brief: (§1)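 Visual herbicidal scores on a graded scale were recorded three weeks after foliar application. Compounds went on as diluted emulsifiable concentrates at predetermined g/a to plants grown 14 days in a 25 to 30° C greenhouse.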

common ragweed [2] = assay: as above; details: three weeks after application
Method in brief: as §1

beadstraw = assay: as above; details: dose 6.3 g/a, three weeks after application
Method in brief: as §1

common lambsquater [3] = assay: as above; details: three weeks after application
Method in brief: as §1

posumbu knotweed [4] = assay: as above; details: three weeks after application
Method in brief: as §1

common chickweed [5] = assay: as above; details: three weeks after application
Method in brief: as §1

Italian ryegrass [6] = assay: as above; details: three weeks after application
Method in brief: as §1

water foxtail [7] = assay: as above; details: three weeks after application
Method in brief: as §1

barnyardgrass [8] = assay: as above; details: three weeks after application
Method in brief: as §1

giant foxtail [9] = assay: as above; details: three weeks after application
Method in brief: as §1

large crabgrass [10] = assay: as above; details: three weeks after application
Method in brief: as §1

redroot pigweed [11] = assay: as above; details: three weeks after application
Method in brief: as §1

velvetleaf [12] = assay: Test Example 3: herbicidal effects in soil treatment; details: dose 3.2 g/a
Method in brief: (§2)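 Seeds were sown in sterilized diluvial soil and covered with about 1.5 cm of soil. Compounds, formulated as emulsifiable concentrates and diluted with water, were sprayed evenly over the soil surface at set doses in g/a. Herbicidal effect was scored on a rating scale three weeks later.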

common ragweed [13] = assay: as above; details: dose 3.2 g/a
Method in brief: as §2

common lambsquater [14] = assay: as above; details: dose 3.2 g/a
Method in brief: as §2

posumbu knotweed [15] = assay: as above; details: dose 3.2 g/a
Method in brief: as §2

common chickweed [16] = assay: as above; details: dose 3.2 g/a
Method in brief: as §2

Italian ryegrass [17] = assay: as above; details: dose 3.2 g/a
Method in brief: as §2

water foxtail [18] = assay: as above; details: dose 3.2 g/a
Method in brief: as §2

barnyardgrass [19] = assay: as above; details: dose 3.2 g/a
Method in brief: as §2

giant foxtail [20] = assay: as above; details: dose 3.2 g/a
Method in brief: as §2

large crabgrass [21] = assay: as above; details: dose 3.2 g/a
Method in brief: as §2

redroot pigweed [22] = assay: as above; details: dose 3.2 g/a
Method in brief: as §2

ducksalad [23] = assay: Test Example 2: herbicidal effects during the vegetation period under submerged conditions; details: treatment during the vegetation period under submerged conditions; dose 2.52 g/a
Method in brief: (§3)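 Barnyardgrass, bulrush and ducksalad were co-sown in alluvial soil flooded to 4 cm and grown in a greenhouse at 25 to 30° C. At the 1- or 2-leaf stage, water-diluted emulsifiable concentrates went onto the water surface at set doses (g/a). Herbicidal effect was scored three weeks later on a graded scale.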

barnyardgrass [24] = assay: as above; details: treatment during the vegetation period under submerged conditions; dose 2.52 g/a
Method in brief: as §3

bulrush [25] = assay: as above; details: treatment during the vegetation period under submerged conditions; dose 2.52 g/a
Method in brief: as §3

ducksalad [26] = assay: Test Example 1: herbicidal effects in preemergence treatment under submerged conditions; details: dose 2.52 g/a
Method in brief: (§4)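 Submerged conditions, 4 cm water over alluvial soil. Weeds sown and 2.5-leaf rice transplanted; compound applied preemergence to water surface, doses in g per are. Greenhouse, 25 to 30° C., three weeks, then 0–5 mortality rating.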

barnyardgrass [27] = assay: as above; details: dose 2.52 g/a
Method in brief: as §4

bulrush [28] = assay: as above; details: dose 2.52 g/a
Method in brief: as §4

transplanted rice = assay: Test Example 1: preemergence treatment under submerged conditions, effect on crop; details: dose 2.52 g/a
Method in brief: as §4

With `CCOC(=O)N(c1ccccc1CN1CC(C)OCC1=O)S(=O)(=O)C(F)(F)F` (stereo not shown) [Compound I-7] the “I: velvetleaf, herbicidal effect” value (velvetleaf [1]; dose 6.3 g/a) was 5 (mortality of 90% or above (nearly complete death)), the “J: common ragweed, herbicidal effect” value (common ragweed [2]; dose 6.3 g/a) was 4 (mortality of at least 70% and less than 90%) and the “O: beadstraw, herbicidal effect” value (beadstraw) was 5 (mortality of 90% or above (nearly complete death)). The “L: common lambsquater, herbicidal effect” value (common lambsquater [3]; dose 6.3 g/a) was 4 (mortality of at least 70% and less than 90%), the “M: posumbu knotweed, herbicidal effect” value (posumbu knotweed [4]; dose 6.3 g/a) was 4 (mortality of at least 70% and less than 90%) and the “N: common chickweed, herbicidal effect” value (common chickweed [5]; dose 6.3 g/a) was 5 (mortality of 90% or above (nearly complete death)). The “H: Italian ryegrass, herbicidal effect” value (Italian ryegrass [6]; dose 6.3 g/a) was 5 (mortality of 90% or above (nearly complete death)), the “G: water foxtail, herbicidal effect” value (water foxtail [7]; dose 6.3 g/a) was 5 (mortality of 90% or above (nearly complete death)) and the “A: barnyardgrass, herbicidal effect” value (barnyardgrass [8]; dose 6.3 g/a) was 5 (mortality of 90% or above (nearly complete death)). For the same compound, the “E: giant foxtail, herbicidal effect” value (giant foxtail [9]; dose 6.3 g/a) was 5 (mortality of 90% or above (nearly complete death)), the “D: large crabgrass, herbicidal effect” value (large crabgrass [10]; dose 6.3 g/a) was 5 (mortality of 90% or above (nearly complete death)) and the “K: redroot pigweed, herbicidal effect” value (redroot pigweed [11]; dose 6.3 g/a) was 1 (mortality of at least 5% and less than 20%). For the same compound, the “I: velvetleaf, herbicidal effect (evaluation scale 0-5)” value (velvetleaf [12]) was 5 (mortality of 90% or above (nearly complete death)), the “J: common ragweed, herbicidal effect (evaluation scale 0-5)” value (common ragweed [13]) was 5 (mortality of 90% or above (nearly complete death)) and the “L: common lambsquater, herbicidal effect (evaluation scale 0-5)” value (common lambsquater [14]) was 5 (mortality of 90% or above (nearly complete death)). The “M: posumbu knotweed, herbicidal effect (evaluation scale 0-5)” value (posumbu knotweed [15]) was 5 (mortality of 90% or above (nearly complete death)), the “N: common chickweed, herbicidal effect (evaluation scale 0-5)” value (common chickweed [16]) was 5 (mortality of 90% or above (nearly complete death)) and the “H: Italian ryegrass, herbicidal effect (evaluation scale 0-5)” value (Italian ryegrass [17]) was 5 (mortality of 90% or above (nearly complete death)). For the same compound, the “G: water foxtail, herbicidal effect (evaluation scale 0-5)” value (water foxtail [18]) was 5 (mortality of 90% or above (nearly complete death)), the “A: barnyardgrass, herbicidal effect (evaluation scale 0-5)” value (barnyardgrass [19]) was 5 (mortality of 90% or above (nearly complete death)) and the “E: giant foxtail, herbicidal effect (evaluation scale 0-5)” value (giant foxtail [20]) was 5 (mortality of 90% or above (nearly complete death)). The “D: large crabgrass, herbicidal effect (evaluation scale 0-5)” value (large crabgrass [21]) was 5 (mortality of 90% or above (nearly complete death)), the “K: redroot pigweed, herbicidal effect (evaluation scale 0-5)” value (redroot pigweed [22]) was 5 (mortality of 90% or above (nearly complete death)) and the “C: ducksalad, herbicidal effect (evaluation scale 0-5)” value (shortened to “C: ducksalad, herbicidal effect”) (ducksalad [23]) was 5 (mortality of 90% or above (nearly complete death)). The “A: barnyardgrass, herbicidal effect (evaluation scale 0-5)” value (barnyardgrass [24]) was 5 (mortality of 90% or above (nearly complete death)), the “B: bulrush, herbicidal effect (evaluation scale 0-5)” value (shortened to “B: bulrush, herbicidal effect”) (bulrush [25]) was 5 (mortality of 90% or above (nearly complete death)) and the “C: ducksalad, herbicidal effect” value (ducksalad [26]) was 5 (mortality of 90% or above (nearly complete death)). For the same compound, the “A: barnyardgrass, herbicidal effect (evaluation scale 0-5)” value (barnyardgrass [27]) was 5 (mortality of 90% or above (nearly complete death)) and the “B: bulrush, herbicidal effect” value (bulrush [28]) was 5 (mortality of 90% or above (nearly complete death)).

In the case of `CCOC(=O)N(c1ccccc1CN1COC(C)(c2ccccc2)CC1=O)S(=O)(=O)C(F)(F)F` (stereo not shown) [II-58], the “a: transplanted rice, effect on crop (evaluation scale 0-5)” value (transplanted rice) is reported as 0 (mortality of less than 5% (almost ineffective)), the “I: velvetleaf, herbicidal effect” value (velvetleaf [1]; dose 3.2 g/a) is reported as 0 (mortality of less than 5% (almost ineffective)) and the “J: common ragweed, herbicidal effect” value (common ragweed [2]; dose 3.2 g/a) is reported as 3 (mortality of at least 40% and less than 70%). The “L: common lambsquater, herbicidal effect” value (common lambsquater [3]; dose 3.2 g/a) was 1 (mortality of at least 5% and less than 20%), the “M: posumbu knotweed, herbicidal effect” value (posumbu knotweed [4]; dose 3.2 g/a) was 3 (mortality of at least 40% and less than 70%) and the “N: common chickweed, herbicidal effect” value (common chickweed [5]; dose 3.2 g/a) was 4 (mortality of at least 70% and less than 90%). For the same compound, the “H: Italian ryegrass, herbicidal effect” value (Italian ryegrass [6]; dose 3.2 g/a) was 4 (mortality of at least 70% and less than 90%), the “G: water foxtail, herbicidal effect” value (water foxtail [7]; dose 3.2 g/a) was 3 (mortality of at least 40% and less than 70%) and the “A: barnyardgrass, herbicidal effect” value (barnyardgrass [8]; dose 3.2 g/a) was 3 (mortality of at least 40% and less than 70%). The “E: giant foxtail, herbicidal effect” value (giant foxtail [9]; dose 3.2 g/a) was 0 (mortality of less than 5% (almost ineffective)), the “D: large crabgrass, herbicidal effect” value (large crabgrass [10]; dose 3.2 g/a) was 0 (mortality of less than 5% (almost ineffective)) and the “K: redroot pigweed, herbicidal effect” value (redroot pigweed [11]; dose 3.2 g/a) was 0 (mortality of less than 5% (almost ineffective)). For the same compound, the “I: velvetleaf, herbicidal effect (evaluation scale 0-5)” value (velvetleaf [12]) was 0 (mortality of less than 5% (almost ineffective)), the “J: common ragweed, herbicidal effect (evaluation scale 0-5)” value (common ragweed [13]) was 0 (mortality of less than 5% (almost ineffective)) and the “L: common lambsquater, herbicidal effect (evaluation scale 0-5)” value (common lambsquater [14]) was 0 (mortality of less than 5% (almost ineffective)). The “M: posumbu knotweed, herbicidal effect (evaluation scale 0-5)” value (posumbu knotweed [15]) was 4 (mortality of at least 70% and less than 90%), the “N: common chickweed, herbicidal effect (evaluation scale 0-5)” value (common chickweed [16]) was 0 (mortality of less than 5% (almost ineffective)) and the “H: Italian ryegrass, herbicidal effect (evaluation scale 0-5)” value (Italian ryegrass [17]) was 4 (mortality of at least 70% and less than 90%). For the same compound, the “G: water foxtail, herbicidal effect (evaluation scale 0-5)” value (water foxtail [18]) was 5 (mortality of 90% or above (nearly complete death)), the “A: barnyardgrass, herbicidal effect (evaluation scale 0-5)” value (barnyardgrass [19]) was 0 (mortality of less than 5% (almost ineffective)) and the “E: giant foxtail, herbicidal effect (evaluation scale 0-5)” value (giant foxtail [20]) was 0 (mortality of less than 5% (almost ineffective)). For the same compound, the “D: large crabgrass, herbicidal effect (evaluation scale 0-5)” value (large crabgrass [21]) was 0 (mortality of less than 5% (almost ineffective)), the “K: redroot pigweed, herbicidal effect (evaluation scale 0-5)” value (redroot pigweed [22]) was 0 (mortality of less than 5% (almost ineffective)) and the “C: ducksalad, herbicidal effect” value (ducksalad [23]) was 5 (mortality of 90% or above (nearly complete death)). For the same compound, the “A: barnyardgrass, herbicidal effect (evaluation scale 0-5)” value (barnyardgrass [24]) was 4 (mortality of at least 70% and less than 90%), the “B: bulrush, herbicidal effect” value (bulrush [25]) was 5 (mortality of 90% or above (nearly complete death)) and the “C: ducksalad, herbicidal effect” value (ducksalad [26]) was 5 (mortality of 90% or above (nearly complete death)). For the same compound, the “A: barnyardgrass, herbicidal effect (evaluation scale 0-5)” value (barnyardgrass [27]) was 5 (mortality of 90% or above (nearly complete death)) and the “B: bulrush, herbicidal effect” value (bulrush [28]) was 5 (mortality of 90% or above (nearly complete death)).
